This is an account of results in patent publication US6903130B1, “Pyrrolidineacetamide derivative alone or in combination for treatment of cns disorders” (UCB S.A., priority 1999, dated 2005).

Molecules are shown by their SMILES. Marks after values point to notes of the source that are not given here.

In one data set the test system is epilepsy. Conditions: in vivo; cited from earlier work.
For another data set, the system named is sound-sensitive mice. The data set is described as follows: Rotarod test in sound-sensitive mice. The settings on record: combined treatment with 5.5 mg/kg levetiracetam. On the technique in general: The rotarod test checks motor coordination on a turning rod.
Data set [1] in a line: Plasma and brain levels after oral dosing in sound-sensitive mice. Conditions: alone or in combination with levetiracetam. Here is the method: Male genetically sound-sensitive mice (17-30 g; N=10), derived from a DBA strain originally selected by Dr Lehmann of the Laboratory of Acoustic Physiology (Paris) and bred in the UCB Pharma Sector husbandry unit since 1978, were submitted to the induction of audiogenic seizures. Levetiracetam (5.4 mg/kg) and sodium valproate (166.2 mg/kg) were administered orally, alone or in combination, 60 minutes before the induction of audiogenic seizures. For testing audiogenic seizure, the mice were placed in the cages, one mouse per cage, in the sound-attenuated chamber. After a period of habituation of 30 seconds, the acoustic stimulus (90 dB, 10-20 kHz) was delivered for 30 seconds via the loud speakers. During this interval, the mice were observed and the presence of the 3 phases of the seizure activity, namely wild running, clonic and tonic convulsions, was recorded.
In all animals, blood samples were collected immediately after the seizure test (I h after dosing) by cardiac puncture under light carbon dioxide anesthesia, into heparinised microtubes. […] Levetiracetam was measured in plasma and brain samples by validated gas chromatography assay with mass detection. With sodium valproate, fluorescence polarization immunoassays were used.
The mean value plus standard deviation was calculated for plasma and brain concentrations of valproate and levetiracetam, and for the brain/plasma ratio. […]

Data set [2] has as its system diabetic rats (streptozocin-induced diabetic neuropathy). The data set is described as follows: Randall and Selitto test, mechanical hyperalgesia in streptozotocin diabetic rats. Type of data set: in vivo, rat. The source says:
In order to study the activity of levetiracetam with respect to chronic or neuropathic pain, the Applicant carried out a series of experiments based on the Randall test “A method for measurement of analgesic activity on inflamed tissue; Arch. Int. pharmacodyn., 1957, CXI, No4. P 409-419”. By virtue of this protocol, it was possible to determine the ability of levetiracetam to correct hyperalgesia secondary to induction of a neuropathic problem of metabolic origin in a rodent.
The diabetic neuropathy thereby induced allowed the correction of the hyperalgesia caused by the use of levetiracetam to be measured.
The animals used for these experiments were male Sprague-Dawley rats (Charles River, France), weighing 250-280 grams (g), which had undergone induction of diabetes one week after receipt. Male Sprague-Dawley rats (200-220 g) received one interperitoneal injection of streptozocin (75 mg/kg, i.p.) (Zanosar, Upjohn, France) dissolved in distilled water. Hyperglycaemia was confirmed one week after induction by determining the quantity of blood glucose (caudal puncture) using a Dextrostix reactive strip (Ames) read using a calorimeter (Ames Division, Miles Laboratoires, France). Animals with more than 14 millimoles (mM) were considered to be diabetic. The pain thresholds were determined 3 weeks after induction of diabetes.
This model was used in accordance with the description in COURTEIX et al., “Streptozocin-induced diabetic rats. Behavioural evidence for a model of chronic pain” Pain (1993), vol. 53, p81-88. The study was performed using the following compounds: • […]: (Laboratories UCB), dissolved in distilled water. • CARBAMAZEPINE: (Sigma), dissolved in hydroxy propel methylcellulose.
As has already been mentioned above, the test explained below was performed to stimulate a reaction in the animal with a mechanical nociceptive stimulus to a hind paw. An increasing pressure was applied using an analgesia meter (Ugo Basile, type 7200), until a cry was emitted which was considered to be the pain threshold, expressed in grams.
After determining the base thresholds, the animals received the study treatments (vehicle, levetiracetam, 17, 54, 95.2 and 120 mg/kg, carbamazepine, 10 and 30 mg/kg) administered intraperitoneally (i.p.) using the equal block method to avoid any chronobiological influence. The effects of different treatments were thus determined during the same time period. The reaction thresholds were measured 15, 30, 45, 60, 90, 120 and 180 minutes (min) after administration. All of the experiments were performed blind with 8 different animals per treatment.
The results are expressed as means±standard error of mean (S.E.M.).
The dose which could overcome 50% of the hyperalgesia induced by diabetes was calculated as the “anti-hyperalgesic dose effective 50”.
Statistical comparison was carried out by means of a two-way analysis of variance followed by Fischer's PLSD multiple comparison test to analyze the temporal effect.

For the compound `CC[C@H](C(N)=O)N1CCCC1=O` [(R)-(−)-α-ethyl-2-oxo-1-pyrrolidine-acetamide], the “activity in the treatment of epilepsy (in words)” value in the data set on epilepsy is “completely devoid of activity”.
As to `CNC1=Nc2ccc(Cl)cc2C(c2ccccc2)=[N+]([O-])C1` [chlordiazepoxide], the “impairment of rotarod performance under combined treatment (in words)” value (“impairment of rotarod performance” for short) with sound-sensitive mice is “not affected”.
Consider `CCC1(c2ccccc2)C(=O)NC(=O)NC1=O` [phenobarbital, reference compound], for which, in data set [1], the “plasma concentrations and brain/plasma ratio alone vs in combination with levetiracetam (in words)” value is recorded as “unchanged”. Moreover, the “impairment of rotarod performance” value in the data set on sound-sensitive mice is on record as “not affected”.
On to `NC(=O)N1c2ccccc2C=Cc2ccccc21` [Carbamazepine, reference compound], for which the vocalization threshold in data set [2] (carbamazepine 10 mg/kg i.p. group, before diabetes (baseline), mean (SEM)) was 300.9 (12.31) g; in data set [2] (carbamazepine 10 mg/kg i.p., 15 min after injection), 217.5 g; in data set [2] (carbamazepine 10 mg/kg i.p., 30 min after injection) it was 333.8 (14.66)* g; in data set [2] (carbamazepine 10 mg/kg i.p., 45 min after injection) it was 273.8 g; in data set [2] (carbamazepine 10 mg/kg i.p., 60 min after injection) it was 206.3 (10.51)* g; in data set [2] (carbamazepine 10 mg/kg i.p., 90 min after injection) it was 187.5 (8.02) g. For the same compound, the vocalization threshold in data set [2] (carbamazepine 10 mg/kg i.p., 120 min after injection) is 174.4 (3.95) g; in data set [2] (carbamazepine 10 mg/kg i.p., 180 min after injection), 174.4 (3.95) g; in data set [2] (carbamazepine 10 mg/kg i.p., after diabetes, 0 min (base threshold)), 170.6 (5.26) g; in data set [2] (carbamazepine 30 mg/kg i.p. group, before diabetes (baseline), mean (SEM)), 280.3 (9.92) g; in data set [2] (carbamazepine 30 mg/kg i.p., 15 min after injection), 450.0 g; in data set [2] (carbamazepine 30 mg/kg i.p., 30 min after injection), 425.6 (39.98)* g. Further, the vocalization threshold is given as 311.3 g in data set [2] (carbamazepine 30 mg/kg i.p., 45 min after injection); 230.6 (24.86)* g in data set [2] (carbamazepine 30 mg/kg i.p., 60 min after injection); 196.9 g in data set [2] (carbamazepine 30 mg/kg i.p., 90 min after injection); 174.4 (7.99) g in data set [2] (carbamazepine 30 mg/kg i.p., 120 min after injection); 170.6 (6.30) g in data set [2] (carbamazepine 30 mg/kg i.p., 180 min after injection); 152.8 (8.01) g in data set [2] (carbamazepine 30 mg/kg i.p., after diabetes, 0 min (base threshold)). For the same compound, the “spontaneous motor activity (not quantified)” value in data set [2] (carbamazepine 30 mg/kg i.p., delayed effect, 30 min after injection) is “reduction in spontaneous motor activity”. Moreover, the “Effect on diabetic hyperalgesia (in words)” value in data set [2] (i.p., diabetic rats) was “complete reversal of diabetic hyperalgesia for the 2 doses used”.
For `O=C1CN=C(c2ccccc2Cl)c2cc([N+](=O)[O-])ccc2N1` [clonazepam], in the data set on sound-sensitive mice, the “impairment of rotarod performance” value was “not affected”.
